What was measured:
cynomolgus monkeys = experiment: 14-day nasogastric gavage GLP toxicity study in cynomolgus monkeys; format: in vivo, cynomolgus monkey; conditions: 14 days
Excerpt: Assessments of neurobehavioral effects and general toxicity were based on mortality, functional observational battery (FOB) evaluations, clinical observations, body weight, and body temperature; ophthalmoscopic, electrocardiographic examinations; and anatomic and clinical pathology. The anatomical pathology evaluations included histopathology of a full list of tissues from all animals and a comprehensive evaluation of the central nervous system (including selected peripheral nerves) utilizing whole body perfusion and special stains. Bone marrow smears from all animals were evaluated microscopically. Complete differentials and myeloid-erythroid (ME) ratios were performed. Toxicokinetic assessment was conducted for the test article and metabolites.

[1] = test system: polychromatic erythrocytes in mouse bone marrow; experiment: Mouse bone marrow in vivo micronucleus assay; conditions: GLP, 50, 75, 120 mg/kg/day for 3 days
Procedure: Treatment resulted and clinical signs of lethargy and piloerection at doses of 200-400 mg/kg and in mortality of male and female ICR mice at doses of 300 and 400 mg/kg. The highest non-lethal dose was 250 mg/kg.
These doses were based upon prior toxicology data indicating higher doses were associated with mortality in this species. […] A positive control group received a single oral dose of 60 mg/kg cyclophosphamide on Day 2, the day prior to the scheduled euthanasia. Each group consisted of 6 males. Males only were used as no significant differences in response related to gender were expected based upon prior toxicology and toxicokinetic data. All animals were euthanized on Day 3, the day following the final dose and discarded following bone marrow collection.
All animals were observed twice daily for mortality and moribundity. Bone marrow collection for micronucleus evaluation was performed for 5 of the 6 animals in each group at the scheduled euthanasia (Day 3). All animals were discarded without necropsy. Bone marrow smears were prepared, and the coded slides were counted for polychromatic, normochromatic, and micronucleated polychromatic erythrocytes following the final bone marrow sample collection on Day 3.

CYP2C9 = CYP2C9 (Homo sapiens, UniProt P11712); conditions: recombinant enzyme
Procedure: (§1) Control incubations were performed for each assay with appropriate positive inhibitory controls.

Pharmacokinetics in rats = format: in vivo, rat
Procedure: 18-MC is rapidly absorbed and distributed into the brain and fat tissues in rats dosed with 40 mg/kg p.o. or i.p. The estimated volume of distribution is 8 L/kg. 18-MC levels in fat were 4.2 μM and 2.5 μM at 2 hours and 24 hours, respectively. […] On oral administration, it appears that the major metabolites are either M4 or M5, depending on the animal species tested. M4 and M5 are the primary circulating drug species because they are present at proportions greater than 18-MC. […] In the animal species tested its half-life is less than 2 hours at lower doses. At high doses a long elimination phase is evident (ranging from 9 to 20 hours in rats). 18-MC is highly protein bound (95-98%).

[2] = molecular target: T1, rat α3β4 nicotinic acetylcholine receptor (nAChR) (Rattus norvegicus, UniProt P04757+P12392); experiment: cell-based
T1 construct: expressed in transfected cells; host or cells: HEK 293 (ATCC CRL1573), transient, Lipofectamine 2000

CYP2C19 = CYP2C19 (Homo sapiens, UniProt P33261); conditions: recombinant enzyme
Procedure: as §1

[3] = test system: animal substance use models; conditions: i.p.; cited from earlier work
Sprague Dawley rats = experiment: Modified Irwin test, pilot dose finding study, female rats; format: in vivo, rat; conditions: single oral dose 30-800 mg/kg
Procedure: Under the conditions of this study, the no-observed-effect level (NOEL) and no-observed-adverse-effect level (NOAEL) were considered to be 90 mg/kg and 400 mg/kg, respectively.

T1 sequence (P04757 26-499): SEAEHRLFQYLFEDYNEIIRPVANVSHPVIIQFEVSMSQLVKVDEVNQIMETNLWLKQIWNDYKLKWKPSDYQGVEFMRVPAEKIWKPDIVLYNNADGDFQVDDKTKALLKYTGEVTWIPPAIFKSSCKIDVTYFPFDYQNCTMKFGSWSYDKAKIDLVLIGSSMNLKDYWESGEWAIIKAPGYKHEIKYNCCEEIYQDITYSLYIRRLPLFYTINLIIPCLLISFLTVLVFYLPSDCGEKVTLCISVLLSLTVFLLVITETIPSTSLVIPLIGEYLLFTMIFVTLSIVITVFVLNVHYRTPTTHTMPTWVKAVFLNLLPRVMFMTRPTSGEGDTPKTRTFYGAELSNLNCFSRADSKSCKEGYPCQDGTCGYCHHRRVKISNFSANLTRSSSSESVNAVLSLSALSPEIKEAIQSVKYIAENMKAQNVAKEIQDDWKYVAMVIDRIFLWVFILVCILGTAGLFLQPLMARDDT
T1 sequence (P12392 21-495): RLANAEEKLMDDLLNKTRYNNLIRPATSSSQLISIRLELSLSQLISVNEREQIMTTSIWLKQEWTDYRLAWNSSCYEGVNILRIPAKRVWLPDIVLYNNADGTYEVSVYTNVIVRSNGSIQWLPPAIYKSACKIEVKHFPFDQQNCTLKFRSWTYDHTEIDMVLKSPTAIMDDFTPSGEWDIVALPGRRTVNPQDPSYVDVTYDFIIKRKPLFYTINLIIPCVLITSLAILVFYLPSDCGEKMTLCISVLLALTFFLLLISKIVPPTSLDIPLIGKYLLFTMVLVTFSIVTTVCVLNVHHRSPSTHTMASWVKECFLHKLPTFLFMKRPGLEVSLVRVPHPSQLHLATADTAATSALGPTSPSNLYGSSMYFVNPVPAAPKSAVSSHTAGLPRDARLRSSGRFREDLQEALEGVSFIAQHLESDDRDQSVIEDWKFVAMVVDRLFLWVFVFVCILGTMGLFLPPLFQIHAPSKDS
CYP2C19, sequence (P33261 whole entry): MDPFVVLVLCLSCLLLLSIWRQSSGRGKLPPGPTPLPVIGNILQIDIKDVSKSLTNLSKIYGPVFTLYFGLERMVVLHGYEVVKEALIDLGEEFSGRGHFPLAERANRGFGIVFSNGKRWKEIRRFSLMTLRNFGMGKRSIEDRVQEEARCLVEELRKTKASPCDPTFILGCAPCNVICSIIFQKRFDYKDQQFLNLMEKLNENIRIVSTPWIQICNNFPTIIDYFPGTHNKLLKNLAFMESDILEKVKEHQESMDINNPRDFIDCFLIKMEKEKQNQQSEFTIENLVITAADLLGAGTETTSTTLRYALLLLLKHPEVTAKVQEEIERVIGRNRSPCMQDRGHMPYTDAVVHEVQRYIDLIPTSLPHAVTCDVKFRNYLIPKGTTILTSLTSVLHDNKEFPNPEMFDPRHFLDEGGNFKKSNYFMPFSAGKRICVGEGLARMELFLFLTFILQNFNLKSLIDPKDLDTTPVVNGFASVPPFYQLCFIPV
CYP2C9, sequence (P11712 whole entry): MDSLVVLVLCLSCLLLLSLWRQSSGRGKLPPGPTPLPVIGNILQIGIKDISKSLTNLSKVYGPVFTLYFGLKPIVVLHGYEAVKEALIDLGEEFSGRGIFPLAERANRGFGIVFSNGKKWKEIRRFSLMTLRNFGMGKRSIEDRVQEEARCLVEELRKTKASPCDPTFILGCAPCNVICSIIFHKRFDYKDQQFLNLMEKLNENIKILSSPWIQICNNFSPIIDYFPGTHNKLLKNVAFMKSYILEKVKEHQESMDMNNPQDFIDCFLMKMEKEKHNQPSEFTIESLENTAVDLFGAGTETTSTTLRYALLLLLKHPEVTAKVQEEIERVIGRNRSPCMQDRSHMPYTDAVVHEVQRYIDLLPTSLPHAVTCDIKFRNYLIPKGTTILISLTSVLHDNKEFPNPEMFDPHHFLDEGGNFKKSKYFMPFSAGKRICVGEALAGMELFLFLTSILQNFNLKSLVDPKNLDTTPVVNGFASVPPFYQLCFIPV

For `COCC[C@H]1CC2CN3CCc4c([nH]c5ccccc45)[C@](C(=O)OC)(C2)[C@H]13` [18-MC, 18-methoxycoronaridine], the NOAEL (cynomolgus monkeys) was 50 mg/kg/day, the “bone marrow cytotoxicity and clastogenic activity” value [1] was “negative response” and the IC50 (CYP2C9) was 4.1 µM. The “estimated volume of distribution” value (Pharmacokinetics in rats; 40 mg/kg p.o. or i.p.) was 8 L/kg, the “oral bioavailability for total drug substance (AUC of 18-MC and its metabolites)” value (Pharmacokinetics in rats; 60 mg/kg) was “about 25%” and the “18-MC level in fat” value (Pharmacokinetics in rats; 2 hours) was 4.2 µM. For the same compound, the “18-MC level in fat” value (Pharmacokinetics in rats; 24 hours) was 2.5 µM, the Ipeak [2] was 50 ± 4% of ACh and the Iss [2] was 34 ± 5% of peak. The τdecay [2] was 298 ± 23 ms, the IC50 ([2]; read-out: IC50, inhibition of ACh-evoked currents) was 0.8 µM and the IC50 (CYP2C19) was 4.9 µM. For the same compound, the “lowest dosage that significantly reduces drug self-administration” value [3] was no less than 10 mg/kg, the “no-observed-adverse-effect level (NOAEL)” value (Sprague Dawley rats) was 400 mg/kg and the “no-observed-effect level (NOEL)” value (Sprague Dawley rats) was 90 mg/kg.

— patent US20230201217A1 (priority 2019, published 2023)
